We go through four compounds from patent publication US11723867B2, “Method for preparing pharmaceutical composition and pharmaceutical composition” (UPM-Kymmene Corporation, priority 2019, dated 2023).

The structures appear in SMILES notation. Converted amounts (≈) assume the structure as drawn. Like-named read-outs stand apart in the source and are kept apart here.

The conditions of data set [1]: cited from earlier work; for water solubility: atazenavir: as a free base.
The conditions of data set [2]: free base; preclinical animal models; cited from earlier work.
Data set [3] in a line: In vitro dissolution rate of the AZI (2015 Chinese pharmacopoeia, deionized water, 37° C., UV 482 nm). The format is physicochemical. The following applies: at 120 min, 100 rpm. As to the method:
The original AZI powder was dissolved in anhydrous ethanol to form a solution with a concentration of 2 mg/ml under ultrasonic dispersion at room temperature. Subsequently, hydrochloric acid (0.1 M) was added into the AZI solution to form a series of AZI solution with different concentrations (16, 32, 48, 64, 80, 96 μg/ml). Then, 5 ml of each AZI sample and 5 ml of sulfuric acid (73.5%) were added into a test tube and mixed, after that the resultant mixture was kept for reaction for 30 min at the room temperature. Finally, UV absorption was measured at a wavelength of 482 nm to determine the concentration of the AZI solution, and a standard AZI curve can be plotted.
The dissolution rate was determined according to the method of 2015 Chinese pharmacopoeia (XC II). Firstly, 2 mg of AZI was placed in 100 ml of deionized water, and stirred at 100 rpm and 37° C. […]
Then, 2 ml sulfuric acid (73.5%) and 2 ml of the resultant filtrate were added to a test tube to form a mixture, and the mixture was kept for 30 min. Finally, UV absorption was measured at a wavelength of 482 nm to determine the AZI concentration. The dissolution rate of AZI was calculated using Eq. 2: Dissolution rate (%)=(Cn×V2+C1×V1+C2×V1+ . . . +Cn-1×V1)×100%/m (2) […]

Consider `COC(=O)N[C@H](C(=O)N[C@@H](Cc1ccccc1)[C@@H](O)CN(Cc1ccc(-c2ccccn2)cc1)NC(=O)[C@@H](NC(=O)OC)C(C)(C)C)C(C)(C)C` [atazenavir], for which the water solubility in data set [1] is less than 1 µg/mL. Also, in data set [2], the oral bioavailability entry is reported as “poor oral bioavailability”.
Consider `CC(C(=O)O)c1ccc2c(c1)[nH]c1ccc(Cl)cc12` (stereo not drawn) [carprofen], for which the solubility in water in data set [1] and in data set [1] (value in brackets) was 3.79 µg/mL (≈ 13.8 µM) each time.
Regarding `CC[C@H]1OC(=O)[C@H](C)[C@@H](O[C@H]2C[C@@](C)(OC)[C@@H](O)[C@H](C)O2)[C@H](C)[C@@H](O[C@@H]2O[C@H](C)C[C@H](N(C)C)[C@H]2O)[C@](C)(O)C[C@@H](C)CN(C)[C@H](C)[C@@H](O)[C@]1(C)O` [original AZI, Azithromycin], the “dissolution rate of AZI” value in data set [3] is recorded as 1.31%.
Take `CCOc1cc(CC(=O)N[C@@H](CC(C)C)c2ccccc2N2CCCCC2)ccc1C(=O)O` [repaglinide]: the water solubility in data set [1] was 37 µg/mL (≈ 81.8 µM).
